Literature values as cited in patent US20230129072A1, “SYSTEM, PRODUCT AND METHOD FOR MAINTAINING THE VAGINAL MICROBIOME” (VAGINAL BIOME SCIENCE, INC., priority 2021, published 2023).

Columns and labels:
[1] = system: herpes simplex virus (HSV-2); settings: after a single exposure
[2] = system: Lactobacilli spp.

Compound | susceptibility to herpes simplex virus (HSV-2) [1] | toxicity to beneficial Lactobacilli spp. [2]
polyethylene glycol (PEG-8) | markedly increased susceptibility | –
CC(O)CO (stereo not drawn) [propylene glycol] | markedly increased susceptibility | –
nonoxynol-9 [Example N9] | – | toxic
